From publication PMC3359661, “FK228 Analogues Induce Fetal Hemoglobin in Human Erythroid Progenitors” (Anemia, 2012)
Where “and” joins values, the source holds several entries; their conditions need not be identical. Equal values may be shown once.

How the values were obtained:
[1] = tested on: γ-globin promoter activity in KU812-γF/βR stable lines; test: KU812 dual-luciferase reporter stable lines (μLCRβprRluc AγprFluc), γ-globin promoter activity; type: cell-based, human; conditions: 48 hr; for Fold change (γ/γ + 2β): untreated normalized to one
Excerpt: KU812 stable cell lines were created by co-transfecting wild-type KU812 cells with pEGFP-NI (G418 selectable marker) and theμLCRβ prRluc ^A γ prFluc dual-reporter a kind gifts from Dr. George Stamatoyannopoulos (University of Washington). […] Likewise, 1.4 kb of human Aγ-globin promoter was inserted upstream of firefly luciferase to create ^A γ prFluc. The μLCR (locus control region), Pβ prRluc, and ^A γ prFluc fragments were subsequently cloned into the mammalian vector, pRL-null.
After 72 hr, G418 was added at a concentration of […] for 3 days then maintained under selection pressure indefinitely at a concentration of […]. KU812 stable lines were treated with the various drugs at the same concentrations described above. FK228 and analogues were screened at concentrations between 1–1000 nM for 48 hr and cell toxicity was monitored by 2% Trypan blue exclusion. The effect of drug treatments on γ-globin and β-globin promoter activity was monitored by luciferase assay.
Luciferase activity was monitored under the different experimental conditions using the Dual Luciferase Assay Reporter System (Promega, Madison, WI). The activity of firefly luciferase represents γ-globin promoter activity (γF), while the renilla luciferase is the read-out for β-globin promoter activity (βR). The β-globin promoter was strategically cloned between the LCR and γ-globin promoter to increase β expression, while simultaneously increasing the sensitivity of detection of γ-globin gene inducers.
After drug treatments, KU812 stable cells were washed with 1X phosphate buffered saline and lysed in 1X Passive Lysis Buffer for 15 min, then protein extracts were added to the Luciferase Assay Reagent II and firefly luciferase activity quantified in a Turner Designs TD-20/20 luminometer (Sunnyvale, CA). To measure βR activity, Stop & Glo Reagents was added to measure the renilla luciferase activity. Total protein was determined by Bradford assay on a Beckman DU 640 spectrophotometer (Chaska, MN) and luciferase activity was corrected for total protein.
Subsequently, three independent dual-luciferase reporter KU812 stable cell lines were established to analyze the ability FK228 analogues to induce γ-globin promoter activity without an effect on β-globin transcription. […] Since the firefly luciferase gene (γF) has approximately […] luminescence than the renilla gene (βR), the renilla activity was multiplied by two to adjust for the difference in luminescence yielding the γ/γ+2β final measurement. The FK228 analogues were examined at concentrations ranging from 1–1000 nM in the three stable lines. After 48-hour treatments, cells were harvested and protein isolated for luciferase activity using the Dual Luciferase Reporter Assay.

[2] = tested on: HbF levels in primary erythroid cells; test: HbF ELISA in primary erythroid cells; type: cell-based, human
Protocol: (§1) The two-phase liquid culture system was established as previously published by Fibach et al. using buffy coat mononuclear cells, purchased from Carter Blood Care (Fort Worth, TX) in accordance with the guidelines of the Institutional Review Board at the University of Texas at Dallas. During phase 1, cells were grown in IMDM medium with 30% fetal bovine serum and 50 ng/mL each of the granulocyte-monocyte colony-stimulating factor, Interleukin-3, and stem cell factor. Subsequently, phase 2 was initiated on day 7 with the addition of erythropoietin (2 U/mL) and stem cell factor (50 ng/mL). The cells were treated on Day 11 with the different test compounds and harvested on Day 14 (72 hr incubation).
Total hemoglobin was quantified using 20 μL of protein extract from one million KU812 cells mixed with 5 mL of Drabkin's reagent (Sigma); then cyanmethemoglobin was measured at the 540 nm wavelength. HbF levels were quantified using the human Hemoglobin F ELISA Quantitation Kit (Bethyl Laboratory, Montgomery, TX). Briefly, 96-well plates were coated with sheep anti-human HbF antibody (1 mg/mL). After blocking with 1% bovine serum albumin, horse radish peroxidase-conjugated secondary antibody (1 mg/mL) was added. Raw data were analyzed using GraphPad PRISM (GraphPad Software, Inc., La Jolla, CA) and HbF levels were calculated as a ratio of total hemoglobin corrected for total protein (HbF/total Hb/total protein).

[3] = tested on: γ-globin transcription in primary erythroid progenitors; test: RT-qPCR of γ-globin mRNA in primary erythroid progenitors (two-phase liquid culture); type: cell-based, human; conditions: Day 11 erythroid progenitors treated 48 hr (Figure 3 legend), untreated normalized to one
Protocol: as §1
Total RNA was isolated from samples using RNA Stat-60 (TEL-TEST “B” Inc., Friendswood, TX) and used for RT-qPCR analysis as previously published. […] The globin mRNA levels were calculated as a ratio of GAPDH (γ/GAPDH, β/GAPDH), and the γ/β-globin mRNA ratio was calculated by dividing γ/GAPDH by β/GAPDH.
Figure 3 JMA33 and JMA26 induce HbF in primary erythroid cells. (a) Day 11 erythroid progenitors were treated for 48 hr with the controls agents and the FK228 analogues shown and then analyzed by RT-qPCR. […] Data were calculated as the means ± SEM. […] The images generated were used to count 500 DAPI positive cells and the %FITC positive cells were calculated accordingly.

[4] = tested on: γ-promoter activity in GM979 stable line; conditions: μLCRβprRluc AγprFluc GM979 stable line; cited from earlier work
Excerpt: Many published studies have shown that primary erythroid cells remain the best system to confirm HbF-inducing agents and to serve as a predictor of efficacy in vivo. Human burst forming units—erythroid cells in clonogenic assays or erythroid progenitors grown in liquid culture [39, 41]—have been used to evaluate putative HbF inducers. However, these assays are not easily adaptable to large-scale drug screening, thus immortalized cell lines have been investigated for this purpose.

FK228
γ/γ + 2β Mean ([1]; Line 1, firefly (γ) / renilla (β) luciferase corrected for total protein, mean, conc: Cys 10 mM, Hemin 50 μM, SAHA 2000 nM, FK228 1.5 nM, 1127Ox 1000 nM, JMA1 1.5 nM, JMA2 1.0 nM, JMA12 1000 nM, JMA26 500 nM, JMA33 1000 nM, JMA112 100 nM, untreated 0.0402): 0.1197
Fold change (γ/γ + 2β) ([1]; Line 1, concentrations as in E1): 2.975
γ/γ + 2β Mean ([1]; Line 2, concentrations as in E1, untreated 0.1573): 0.6167
Fold change (γ/γ + 2β) ([1]; Line 2, concentrations as in E1): 3.929
γ/γ + 2β Mean ([1]; Line 3, concentrations as in E1, untreated 0.0721): 0.1583
Fold change (γ/γ + 2β) ([1]; Line 3, concentrations as in E1): 2.194
Fold change in HbF levels ([2]; relative to untreated = 1, concentrations as in E7): 2.4 fold and 2.454 fold
Fetal hemoglobin quantification, Mean (HbF/total Hb/total protein) ([2]; treated Day 11, harvested Day 14, conc: Cys 10 mM, Hemin 50 μM, SAHA 2000 nM, FK228 1.5 nM, JMA1 1.5 nM, JMA2 1.0 nM, JMA26 500 nM, JMA33 1000 nM, untreated 0.683): 1.676
induction of γ-globin transcription at the mRNA level [3]: ≤ 3.2 fold
concentration inducing γ-promoter activity [4]: 1 nM
